From US20240385182A1, “MASKED FLUOROGENIC LIPID COMPOUNDS, LIPID PARTICLES COMPRISING THE SAME, AND METHODS OF USE THEREOF” (Rutgers, The State University of New Jersey, priority 2023, published 2024)

Experiments:
[1] = in ethanol; standard; cited from earlier work
HeLa and RAW 264.7 cells = test: Subcellular localization of non-amphiphilic probes in cells treated directly; type: cell-based; details: 20 minutes, TEG-TC-ONOO− cells then stimulated
Experimental: Therefore, cells were treated with TEG-TC (positive control) or TEG-TC-ONOO− directly and incubated for 20 minutes. Those treated with TEG-TC-ONOO− were then stimulated via the methods described above. […] In the case of RAW 264.7 cells, the intracellular homogeneity of the signal was especially substantial.

[2] = Photophysical characterization of probes and uncaged forms (relative fluorescence quantum yield, extinction coefficient, brightness); type: physicochemical; details: for Brightness: in M⁻¹·cm⁻¹ (unit assumed); for Quantum Yield (relative fluorescence quantum yield ΦFrel): standard coumarin 343
Experimental: (§1) The pKa of TEG-TC was determined to be 7.1±0.1 using UV-Vis spectrophotometric measurements. Under the confocal imaging conditions (pH 7.5-8.5 with cell-free assays, pH 7.4 with cells), a substantial population of the 7-hydroxycoumarin should exist in its aryloxide form. The change in coumarin fluorogenicity was assessed upon uncaging the probes from the oxobutylphenyl carbonate by measuring the relative fluorescence quantum yield (ΦFrel) values (Table 2). Coumarin 343 was used as a standard, which has an absolute fluorescence quantum yield ([…]) of 0.63 in ethanol. The ΦFrel values of TEG-TC-ONOO^− (entry 1) and DPPC-TC-ONOO^− (entry 3) were measured as 0.08 and 0.09, respectively. […] The ΦFrel values for TEG-TC (entry 2) and DPPC-TC (entry 4), which were synthesized independently, were measured as 0.66 and 0.64, respectively.
Next, the impact of caging and uncaging of the coumarin or fluorescein moieties on their fluorogenicity was assessed by measuring the relative fluorescence quantum yield (ΦFrel) values (Table 3). Coumarin 343 was used as the standard for measuring ΦFrel of the triazole-coumarin compounds (TEG-TC-H2S, TEG-TC, DPPC-TC-H2S, and DPPC-TC) whereas fluorescein for the triazole-fluorescein compounds (TEG-TF-H2O2, TEG-TF, and DPPC-TF-H2O2, and DPPC-TF). Relative to coumarin 343, whose absolute fluorescence quantum yield (ΦF) is 0.63 in ethanol, ΦFrels of the H2S probes TEG-TC-H2S (entry 1) and DPPC-TC-H2S (entry 3) were determined to be 0.07 and 0.03, respectively.
(§2) The pKa of TEG-TC was previously found to be to be 7.1±0.1 using UV-Vis spectrophotometric measurements. Under the fluorescence activation assay conditions that are employed here (Tris 50 mM, pH 7.5), a substantial population of the coumarin moiety is expected to be in its aryloxide anion form. Relative to fluorescein, whose ΦF is 0.79 in ethanol, ΦFrel values of the H2O2 probes TEG-TF-H2O2 (entry 5) and DPPC-TF-H2O2 (entry 7) were determined to be 0.04 and 0.02, respectively.

[3] = Fluorescence response of TEG-TC-ONOO^− to peroxynitrite in Tris buffer (plate reader)
Experimental: FIG. 7A: time-dependent change in relative fluorescence intensities for probe TEG-TC-ONOO^− (1 μM) and compound TEG-TC (1 μM) in Tris (50 mM, pH 7.5) upon addition of ONOO^− (600 μM). Filled square: TEG-TC, hollow square: TEG-TC+ONOO^−, filled circle: TEG-TC-ONOO^−, and hollow circle: TEG-TC-ONOO^−+ONOO^−. Error bars represent standard deviation, n=3. FIG. 7B: relative fluorescence intensity (F) with respect to the background fluorescence intensity (F0) of TEG-TC-ONOO^− in the absence or presence of redox species. Probe TEG-TC-ONOO^− (1 μM) was dissolved in Tris buffer (50 mM, pH 7.5) and subjected to RNS and ROS (600 μM): ONOO^−, NO·, H2O2, HO·, ^1O2, and O·^−. Data represent FIFO measurements for samples incubated for 60 min. Plate reader was set to excitation at 405 nm and emission at 475 nm. Error bars represent standard deviation, n=3. The response rate and magnitude of TEG-TC-ONOO^− against ONOO^− was evaluated by measuring the relative fluorescence intensities of samples containing TEG-TC-ONOO^− and TEG-TC (positive control) at 405 nm excitation (FIG. 7A). These samples, prepared in Tris buffer (50 mM, pH 7.5), were measured over 60 minutes of incubation with and without ONOO^−. Physiologically normal ONOO^− production rate in cells has been estimated to be in the single-digit μM range, while reaching up to 100 μM under dysregulated conditions. Guided by this information, and in agreement with the fluorescence titration conditions employed for cytosolic resorufin-based peroxynitrite sensors, it was reasoned that administering 600 μM of ONOO^− into a pH 7.5 medium would provide a steady level of effective ONOO^− within a biologically relevant concentration range of […]. […] The difference in fluorescence between the peroxynitrite-treated and untreated samples reached up to 5-fold at the end of 60 minutes. During this time period, the relative fluorescence intensity of the sample containing TEG-TC-ONOO^− became ˜85% of that of the sample containing TEG-TC (positive control). This trend of increasing fluorescence output was mirrored in the level of conversion of TEG-TC-ONOO^− into TEG-TC based on UV-Vis spectrophotometric measurements. The peroxynitrite-specificity of the probe design was assessed by subjecting TEG-TC-ONOO^− to other redox species, including NO·, hydrogen peroxide (H2O2), singlet oxygen (^1O2), hydroxyl radicals (HO·), and O2·^− (FIG. 7B). Change in fluorescence intensity following excitation at 405 nm was measured over 60 minutes of incubation of TEG-TC-ONOO^− with each species and presented based on the signal-to-background ratio F/F0, where F and F0 are defined as the fluorescence with and without the analyte. In the absence of a redox species, F/F0 for TEG-TC-ONOO^− increased only 13% (F/F0=1.13) over 60 minutes. Treatment of TEG-TC-ONOO^− with ONOO^− gave rise to ˜570% increase in fluorescence (F/F0=6.69).

[4] = Peroxynitrite-specificity: TEG-TC-ONOO^− subjected to other redox species; details: for F/F0: 60 min
Experimental: FIG. 7A: time-dependent change in relative fluorescence intensities for probe TEG-TC-ONOO^− (1 μM) and compound TEG-TC (1 μM) in Tris (50 mM, pH 7.5) upon addition of ONOO^− (600 μM). Filled square: TEG-TC, hollow square: TEG-TC+ONOO^−, filled circle: TEG-TC-ONOO^−, and hollow circle: TEG-TC-ONOO^−+ONOO^−. Error bars represent standard deviation, n=3. FIG. 7B: relative fluorescence intensity (F) with respect to the background fluorescence intensity (F0) of TEG-TC-ONOO^− in the absence or presence of redox species. Probe TEG-TC-ONOO^− (1 μM) was dissolved in Tris buffer (50 mM, pH 7.5) and subjected to RNS and ROS (600 μM): ONOO^−, NO·, H2O2, HO·, ^1O2, and O·^−. Data represent FIFO measurements for samples incubated for 60 min. Plate reader was set to excitation at 405 nm and emission at 475 nm. Error bars represent standard deviation, n=3. The peroxynitrite-specificity of the probe design was assessed by subjecting TEG-TC-ONOO^− to other redox species, including NO·, hydrogen peroxide (H2O2), singlet oxygen (^1O2), hydroxyl radicals (HO·), and O2·^− (FIG. 7B). Change in fluorescence intensity following excitation at 405 nm was measured over 60 minutes of incubation of TEG-TC-ONOO^− with each species and presented based on the signal-to-background ratio F/F0, where F and F0 are defined as the fluorescence with and without the analyte. In the absence of a redox species, F/F0 for TEG-TC-ONOO^− increased only 13% (F/F0=1.13) over 60 minutes. Treatment of TEG-TC-ONOO^− with ONOO^− gave rise to ˜570% increase in fluorescence (F/F0=6.69). […] NO·, a free radical RNS that serves as a signaling molecule in cells, had essentially no effect on fluorescence intensity (F/F0=1.03).

[5] = pKa by UV-Vis spectrophotometric measurements; type: physicochemical
Experimental: as §1, §2

O=C(O)c1cc2cc3c4c(c2oc1=O)CCCN4CCC3 [Coumarin 343]
absolute fluorescence quantum yield (ΦF) [1]: 0.63

O=C(Oc1ccc(CCC(=O)C(F)(F)F)cc1)Oc1ccc2cc(-n3cc(COCCOCCOCCO)nn3)c(=O)oc2c1 [TEG-TC-ONOO^−]
subcellular distribution of signal (HeLa and RAW 264.7 cells): throughout the cells, including the nucleus | Emmax [2]: 472.0 nm | Exmax [2]: 400.0 nm | Ext. Coeff. [2]: 4475 M⁻¹ cm⁻¹ | Relative Brightness ([2]; Table 2, DPPC-TC-ONOO^− = 1.0): 1.4 | Brightness [2]: 358 | Quantum Yield (relative fluorescence quantum yield ΦFrel) [2]: 0.08 | F/F0 ([3]; ONOO^− 600 μM, 60 min, 405/475 nm): 6.69 | difference in fluorescence between peroxynitrite-treated and untreated samples ([3]; ONOO^− (600 PM), Tris 50 mM pH 7.5, end of 60 minutes): up to 5 fold | relative fluorescence intensity as % of that of TEG-TC (positive control) ([3]; ONOO^− treated, 60 minutes): ~85% | F/F0 ([3]; absence of a redox species, 60 minutes, 405 nm excitation): 1.13 | increase in F/F0 ([3]; absence of a redox species, over 60 minutes): 13% | fluorescence compared to the sample untreated ([3]; probe 1 μM, ONOO^− (600 PM), Tris 50 mM pH 7.5, within the first 10 minutes): ~3 fold | increase in fluorescence ([3]; treatment with ONOO^−, 60 min): ~570% | relative fluorescence enhancement for ONOO^− compared to the other RNS and ROS [4]: ~36 fold | F/F0 ([4]; H2O2 600 μM): 1.16 | fluorescence intensity stronger than background ([4]; H2O2, 60 min): 16% | F/F0 ([4]; NO· 600 μM): 1.03

O=c1oc2cc(O)ccc2cc1-n1cc(COCCOCCOCCO)nn1 [TEG-TC]
subcellular distribution of signal (HeLa and RAW 264.7 cells): throughout the cells, including the nucleus | pKa [5]: 7.1±0.1 | Emmax [2]: 471.4 nm | Exmax [2]: 397.0 nm | Ext. Coeff. [2]: 15613 M⁻¹ cm⁻¹ | enhanced brightness, uncaging product vs caged probe [2]: 28 fold | Relative Brightness ([2]; Table 2, DPPC-TC-ONOO^− = 1.0): 41.1 | Relative Brightness ([2]; Table 3, brightness compared to that of DPPC-TC-H2S): 143.2 | Brightness [2]: 10305 | Quantum Yield (relative fluorescence quantum yield ΦFrel) [2]: 0.66
